These results are taken from patent US11608320B2, “Oxazolidinone hydroxamic acid derivatives” (KUWAIT UNIVERSITY, priority 2020, dated 2023).

Molecules are shown by their SMILES.

In data set [1] the test system is degranulation of bone marrow-derived mouse mast cells. The experiment in a line: Inhibition of degranulation (β-hexoseaminidase release) in allergen/IgE-activated BMMC. In kind it is cell-based. Particulars: anti-DNP IgE sensitized, DNP-BSA 30 ng/ml, 30 min. An excerpt:
Inhibition of LTC4 release and degranulation in allergen/IgE-activated bone marrow-derived mouse mast cells (BMMC): Bone marrow-derived mast cells (BMMC) were generated from pathogen-free 5-7 week old male Balb/c mice according to the method of Davis et al., [2004] (Davis, B. J., et al., (2004), Journal of Immunology, 173: 6914-6920). Essentially, bone marrow cells were obtained by flushing of the femoral bone marrow and cultured in RPMI 1640 medium supplemented with 10% FBS, 100 U/ml penicillin, and 100 μg/ml streptomycin, 25 mM HEPES, 1.0 mM sodium pyruvate, 0.1 mM nonessential amino acids, 0.0035% 2-mercaptoethanol, and 30 ng/ml mouse recombinant IL-3, with culture medium replaced every two days. Cells were used after 4-8 weeks of culture, by which time at least 97% of the cells would have differentiated into mast cells.
The generated BMMCs were seeded at 5×10^4 cells/well in a 96-well flat-bottom culture plate and passively sensitized overnight with 0.5 μg/ml anti-DNP monoclonal IgE antibody (clone SPE-7, Sigma-Aldrich, St. Louis, Mo., USA). The cells were then washed twice to remove any unbound antibody and subsequently re-suspended in reaction buffer (135 mM NaCl, 5 mM KCl, 1.8 mM CaCl2), 1 mM MgCl2, 5.6 mM glucose, 0.05% BSA and 20 mM HEPES, pH 7.4). […] After 30 min incubation at 37° C., the amount of LTC4 released into the supernatant (as index of 5-LO activity) was determined by ELISA as described below.
The concurrently-released granular enzyme, β-hexoseaminidase (as index of degranulation) was determined as described below.
The beta-hexoseaminidase released into the supernatant by the degranulating BMMCs was determined colorimetrically using p-nitrophenyl-N-acetyl-β-D-glucosaminide as substrate. […] The absorbance of the colored product (p-nitrophenol) was then read at 405 nm in a microplate reader. Results were expressed as percentage of the total cell content (determined in cells lysed with 0.1% triton-x-100).

Data set [2] relates to zymosan-induced peritonitis. Put plainly: Zymosan-induced peritoneal inflammation in mice. Format: in vivo, mouse. To be noted: 30 min before zymosan i.p., peritoneal exudate at 2 h. An excerpt:
Inhibition of zymosan-induced peritoneal inflammation in mice: Female Balb/c mice, 6-8 weeks old, obtained from the Animal Resources Center of the Health Sciences Center, Kuwait University, were used. They were maintained under temperature-controlled conditions with an artificial 12-h light/dark cycle and allowed standard chow and water ad libitum. The study protocol was approved by the “Health Sciences Center Animal Welfare Committee” and complied with the “Guidelines for the Care and Use of Laboratory Animals” of the Health Sciences Centre, Kuwait University. The zymosan-induced peritonitis model-a recognized LT-mediated inflammatory reaction, described particularly in Hanke et al., 2013 ([…]., et al. (2013). Journal of medicinal chemistry, 56(22), 9031-9044) was used. […] After 30 min, all groups were injected intraperitonally with 0.2 ml of activated zymosan (2 mg/ml) except the control group that received 0.2 ml PBS. After 2 h, all animals were killed and the peritoneal exudate was collected by washing the cavity with 3 ml of heparinized (10 IU/ml) PBS.

A word on the melting point: it is the temperature, or range, at which the solid turns liquid. Compound `CCCCCCCC(=O)N(O)C[C@H]1CN(c2ccc(N3CCOCC3)c(F)c2)C(=O)O1` [PH-251, (R)—N-((3-(3-fluoro-4-morpholinophenyl)-2-oxooxazolidin-5-yl)methyl)-N-hydroxyoctanamide] yielded a melting point of 119 to 122 °C. Also, the “Inhibition of degranulation (release of granular β-hexoseaminidase) (FIG. 2B)” value in data set [1] is given as “able to inhibit degranulation”. In data set [2] (3 mg/kg s.c.), the “Net Exudate Vol” value worked out at 0.24 ± 0.05 mL, the “Total Cell No” value is 21.1 ± 1.6 ×10^6 and the “Total LTC4” value is 101.7 ± 20.2 ng. Further, in data set [2] (10 mg/kg s.c.), the “Net Exudate Vol” value was determined as 0.12 ± 0.08 mL, the “Total Cell No” value is 16.4 ±17 ×10^6 and the “Total LTC4” value came to 77.4 ± 16.8 ng. In data set [2] (30 mg/kg s.c.), the “Net Exudate Vol” value was determined as 0.04 ± 0.02 mL, the “Total Cell No” value is reported as 17.6 ± 2.1 ×10^6 and the “Total LTC4” value is 33.9 ± 4.9 ng.
